Experimental data from ChEMBL document CHEMBL1275341, “Synthesis and antimalarial activities of rhenium bioorganometallics based on the 4-aminoquinoline structure” (Bioorg Med Chem, 2010).

Columns and labels:
Plasmodium falciparum [1] = assay: Antimalarial activity against chloroquine-resistant Plasmodium falciparum W2 infected in human A+ erythrocytes assessed as inhibition of [3H]hypoxanthine uptake after 48 hrs by scintillation counting; type: functional, organism-based
Plasmodium falciparum [2] = assay: Antimalarial activity against chloroquine-susceptible Plasmodium falciparum 3D7 infected in human A+ RBC assessed as inhibition of [3H]hypoxanthine uptake after 48 hrs by scintillation counting; type: functional, organism-based

SMILES | IC50 (Plasmodium falciparum [1]) [nM] | IC50 (Plasmodium falciparum [2]) [nM]
Clc1ccc2c(NCCNCc3ccc4ccccc4c3)ccnc2c1 | 820 | 48
Clc1ccc2c(NCCNCc3cccc4ccccc34)ccnc2c1 | 1200 | 471
Clc1ccc2c(NCCNCc3c4ccccc4cc4ccccc34)ccnc2c1 | 797 | 84
